Like-named read-outs stand apart in the source and are kept apart here.
Legend:
human MSCs = assay: Stem cell migration assay (percent closure of cell-free zone); conditions: for effect on MSC migration induced by curcumin and quercetin / effect on MSC migration induced by curcumin and resveratrol: 20 micromolar AMD3100 / 15 micromolar GM6001; for effect on MSC migration induced by curcumin and quercetin: FIG. 14; for effect on MSC migration induced by curcumin and resveratrol: FIG. 15; for EC50: Homo sapiens
Experimental: FIG. 1 is a microphotograph depicting cell migration using fluorescent readout and cell tracker green as a fluorescent marker of human UC-MSCs. […] The EC50 was determined as a measure of effectiveness of activating agents. […] An initial analysis of the cell free zone using Image J software was used to screen concentrations of activating agents for dose-response determination in further experiments.
The cell migration assays described above were set up as follows: One million cells/cell line were resuspended in 10 mL MSC-GRO™ serum free, quiescent medium (Vitro Biopharma Cat. No. SC00B17) containing […] mitomycin C (Sigma, Cat. No. M4287) to inhibit proliferation and incubated for 2 hours at room temperature with end-to-end agitation at 7 RPM. In some experiments, curcumin was used at 1 μM to block proliferation. Cells were centrifuged (450×g) for 7 minutes, washed with phosphate buffered saline (PBS) and then resuspended in 1 mL MSC-GRO™ low serum, complete 20 medium (Vitro Biopharma Cat. No. SC00B1) and plated at 25,000 cells/well in black 96 well, TC-coated cell culture plates, (ThermoScientific, Cat. No. 165305) containing cell seed-stoppers (Platypus, Cat. No. CMAUFL4) to form a cell free zone at the center of the well and incubated in 5% CO2, 1% O2, 94% N2 at 37° C. in a humidified chamber for 24 hrs. Plates used for culture of NSCs, were first treated with 10 μg/mL fibronectin (Sigma, Cat. No. F0556) for 2 hours at 37° C. Following washout with PBS (3×), cell seed stoppers were inserted, NSCs were plated at 25,000/well and incubated in 5% CO2, 1% O2, 94% N2 at 37° C. in a humidified chamber for 48 hrs. For studies of the effects of CXCR4 and MMP-9 inhibition, following 24 hours of cell culture, appropriate wells were dosed with 15 μM GM6001 and 20 μM AMD3100 for 6 hours. Cells were washed once with PBS then incubated in serum free, MSC-GRO™ (Vitro Biopharma Cat. No. SC00B17) containing 5 μM Cell Tracker Green CMFDA (Molecular Probes, Cat. No. C7025) at 37° C. for 30 minutes. The wells were then washed with serum free, MSC-Gro™ (Vitro Biopharma Cat. No. SC00B17) and incubated for 30 minutes at 37° C. Cells were washed once with PBS and this was replaced with MSC-GRO™ serum free, quiescent medium (Vitro Biopharma Cat. No. SC00B1I7) containing different concentrations of activating agents. […] A TOPSEAL™ (PerkinElmer, Cat. No. 6050195) covered the plate for live-cell imaging in a BioTek Cytation3 Imaging Reader. […] The gas phase throughout the acquisition of kinetic data was 5% O2, 5% CO2 with the balance nitrogen maintained by a BioTek CO2/O2 gas controller. Images were saved as TIFF files to calculate percent closure using imaging data.

Hsp70 = assay: qPCR gene expression analysis in human MSCs; type: cell-based; conditions: for Hsp70 expression increase: 250 μM VPA, 500 nM curcumin, up to 2 weeks, FIG. 13
Experimental: (§1) Gene expression was quantified by determining the amount of gene-specific DNA/total cDNA. Data are mean+/−S.D. of 4 replicates.
(§2) Native human umbilical cord-derived MSCs (Vitro Biopharma Cat. No. SCOOA1) were expanded from cryopreservation in a T-25 TC-coated flasks (BD Falcon, Cat. No. 353108) in MSC-GRO™ low serum, complete medium (Vitro Biopharma Cat. No. SC00B1). Cells were subcultured and counted on a Beckerman-Coulter Z2 particle counter (range 10 μm-30 μm). […] The MSCs were treated continuously for up to 2 weeks. Cultures were fed every three days. Cells were harvested using ACCUTASE™ (Innovative Cell Technologies Inc., Cat No AT-104) and centrifuged (450×g) for 7 minutes. Cell supernatant was aspirated off and cells were resuspended in 1 mL PBS and counted on a Beckerman-Coulter Z2 particle counter (range 10 μm-30 μm).
(§3) Total RNA was extracted using RNeasy Mini Kit (Qiagen Cat. No. 74104). RNA was quantified using an absorbance measurement at 260 nm. RNA was converted to cDNA using Quantitect Reverse Transcription Kit (Qiagen Cat. No. 205310) in a thermocycler. RNA was incubated in the DNA elimination reaction for 2 minutes at 42° C. then incubated in the reverse-transcription master mix for 15 minutes at 42° C. Immediately after, it was incubated at 95° C. for 3 minutes for inactivation. cDNA was sent to an outside lab (CU-Anschutz Metabolic Laboratory) for q-PCR to detect relative or absolute gene expression levels. cDNA was diluted 1:5 and iTaq Universal Supermix fluorescent probe (BioRad Cat. No. 172-5120) used to detect the threshold cycle (Ct) during PCR. Dilution factors and cDNA concentrations were calculated into recorded values then normalized to untreated hMSCs (Vitro Biopharma Cat. No. SC00A1).

CXCR4 = assay: qPCR gene expression analysis in human MSCs; type: cell-based; conditions: for CXCR4 expression increase: 250 μM VPA, 500 nM curcumin, up to 2 weeks, FIG. 13
Experimental: as §1, §2, §3

Oct 3/4 = assay: qPCR gene expression analysis in human MSCs; type: cell-based; conditions: for Oct 3/4 expression increase: 250 μM VPA, 500 nM curcumin, compared to beta-actin, FIG. 13
Experimental: (§4) Beta actin was measured as a house-keeping gene. […] Gene expression was quantified by determining the amount of gene-specific DNA/total cDNA. Data are mean+/−SD of 4 replicates.
(§5) Native human umbilical cord-derived MSCs (Vitro Biopharma Cat. No. SC00A1) were expanded from cryopreservation in a T-25 TC-coated flasks (BD Falcon, Cat. No. 353108) in MSC-GRO™ low serum, complete medium (Vitro Biopharma Cat. No. SC00BI). Cells were subcultured and counted on a Beckerman-Coulter Z2 particle counter (range 10 μm-30 μm). Cells were plated at 10,000/cm^2 a TC-coated Greiner Bio-One T75 flask and maintained in MSC-GRO™ serum free, complete medium (Vitro Biopharma Cat. No. SC00B3) in a reduced 02 environment (1% O2, 5% CO2, 94% N2) at 37° C. in a humidified chamber. The MSCs were treated continuously for up to 2 weeks. Cultures were fed every three days. Cells were harvested using ACCUTASE™ (Innovative Cell Technologies Inc., Cat No AT-104) and centrifuged (450×g) for 7 minutes. Cell supernatant was aspirated off and cells were resuspended in 1 mL PBS and counted on a Beckerman-Coulter Z2 particle counter (range 10 μm-30 μm). Total RNA was extracted using RNeasy Mini Kit (Qiagen Cat. No. 74104). RNA was quantified using an absorbance measurement at 260 nm. RNA was converted to cDNA using Quantitect Reverse Transcription Kit (Qiagen Cat. No. 205310) in a thermocycler. RNA was incubated in the gDNA elimination reaction for 2 minutes at 42° C. then incubated in the reverse-transcription master mix for 15 minutes at 42° C. Immediately after, it was incubated at 95° C. for 3 minutes for inactivation. cDNA was sent to an outside lab (CU-Anschutz Metabolic Laboratory) for q-PCR to detect relative or absolute gene expression levels. cDNA was diluted 1:5 and iTaq Universal Supermix fluorescent probe (BioRad Cat. No. 172-5120) used to detect the threshold cycle (Ct) during PCR. Dilution factors and cDNA concentrations were calculated into recorded values then normalized to untreated hMSCs (Vitro Biopharma Cat. No. SC00A1).
as §1, §2, §3

SIRT-1 = assay: qPCR gene expression analysis in human MSCs; type: cell-based; conditions: up to 2 weeks; for SIRT-1 expression increase: 250 μM VPA, 500 nM curcumin, FIG. 13
Experimental: as §4, §5, §1, §2, §3

FGF-21 = assay: qPCR gene expression analysis in human MSCs; type: cell-based; conditions: for FGF-21 expression increase: 250 μM VPA, 500 nM curcumin, up to 2 weeks, FIG. 13
Experimental: as §4, §5, §1, §2, §3

MSCs = assay: Cell-based proliferation assay (Presto Blue); conditions: Homo sapiens
Experimental: (§6) The effects of fibroblast growth factor 2 (FGF-2), lithium, and VPA on stem cell proliferation were then investigated, using an assay based on Presto Blue, a fluorescent marker of cellular reduction. FIG. 8 is a line graph representation illustrating proliferation of different cell lines induced by increasing concentrations of FGF-b (FGF-2) after a 5 day exposure. Relative fluorescent units were measured using a FITC filter on a Modulus Microplate Reader and plotted as a function of FGF-2. The data were modeled by sigmoidal curve fitting to calculate EC50 values. […] Proliferation of these mesenchymal cells was stimulated by recombinant human FGF-2 with EC50 values in the range of 3 ng/mL to 6 ng/mL with maximal proliferative responses at about 10 ng/mL.

human fibroblast = conditions: read-out: EC50, human fibroblast migration induced by substance P, prior study; suspension culture system; Parenti et al. 1996; cited from earlier work
[1] = test system: CAFs, primary fibroblasts and MSCs; assay: Cell-based proliferation assay (Presto Blue); parameters: species or system human; conditions: 5 day exposure; FIG. 8
Experimental: as §6

[2] = curcumin at 500 nM, statistically significant

With `c1cc(CN2CCCNCCNCCCNCC2)ccc1CN1CCCNCCNCCCNCC1` [AMD3100] the “effect on VPA-induced CB-MSC migration” value (human MSCs; 20 μM AMD3100, CXCR-4 inhibitor, FIG. 7) was “blocked the VPA-induced CB-MSC migration”, the “effect on MSC migration induced by curcumin and quercetin” value (human MSCs) was “blocked MSC migration” and the “effect on MSC migration induced by curcumin and resveratrol” value (human MSCs) was “blocked MSC migration”.
In the case of `CNC(=O)[C@H](Cc1c[nH]c2ccccc12)NC(=O)[C@@H](CC(=O)NO)CC(C)C` [GM6001], the “effect on lithium induced CB-MSC migration” value (human MSCs; 15 μM GM6001, MMP-9 inhibitor, FIG. 7) is reported as “blocked lithium induced CB-MSCs”, the “effect on MSC migration induced by curcumin and quercetin” value (human MSCs) is reported as “blocked MSC migration” and the “effect on MSC migration induced by curcumin and resveratrol” value (human MSCs) is reported as “blocked MSC migration”.
For `CCCC(=O)[O-].[Na+]` [Na butyrate], the Hsp70 expression increase (Hsp70) was “lower levels”, the CXCR4 expression increase (CXCR4) was “lower levels” and the “Oct 3/4 expression increase” value (Oct 3/4; up to 2 weeks) was “less expression activation”. The SIRT-1 expression increase (SIRT-1) was “significantly less effective” and the FGF-21 expression increase (FGF-21) was “lower levels”.
With `CC(/C=C/C(=O)NO)=C\[C@@H](C)C(=O)c1ccc(N(C)C)cc1` [TSA] the Hsp70 expression increase (Hsp70) was “lower levels”, the CXCR4 expression increase (CXCR4) was “lower levels” and the “Oct 3/4 expression increase” value (Oct 3/4; up to 2 weeks) was “less expression activation”. The SIRT-1 expression increase (SIRT-1) was “significantly less effective” and the FGF-21 expression increase (FGF-21) was “lower levels”.
For `CCCC(CCC)C(=O)O` [VPA, valproic acid], the “Oct 3/4 expression increase vs untreated human MSCs” value (Oct 3/4; 31.25 μM VPA, 200 μM lithium, up to 2 weeks, FIG. 11) was “about 20 fold”, the “Oct 3/4 expression increase” value (Oct 3/4; up to 2 weeks) was “about 20 fold” and the “SIRT-1 expression increase vs untreated MSC” value (SIRT-1; 31.25 μM VPA, 200 μM lithium, FIG. 11) was about 300 fold. It also gave an EC50 (MSCs; 120 h, increasing VPA in 200 μM lithium, MSCs, 5 day exposure, FIG. 10, read-out: EC50, proliferation) of 39 µM, an EC50 (MSCs; in the presence of 200 μM lithium, MSCs and NSCs, range over migration and proliferation assays, read-out: VPA concentration 50% effective in inducing cell proliferation and migration) of 35 to 39 µM and an EC50 (MSCs; in the presence of 200 μM lithium, MSCs and NSCs, read-out: VPA concentration 50% effective in inducing cell proliferation and migration, mean) of 37 µM. For the same molecule, the EC50 (human MSCs; read-out: EC50, migration, increasing VPA in 200 μM lithium, MSCs, FIG. 6) was 36 µM and the “concentration of maximum closure” value (human MSCs; VPA alone, FIG. 5) was 100 µM.
In the case of `COc1cc(/C=C/C(=O)CC(=O)/C=C/c2ccc(O)c(OC)c2)ccc1O` [curcumin], the “Hsp70 expression increase compared to untreated cells” value (Hsp70; [2]) is reported as “at least 20 fold”, the “CXCR-4 expression increase compared to untreated cells” value (CXCR4; [2]) is reported as “at least 20 fold” and the “Oct 3/4 expression increase” value (Oct 3/4; up to 2 weeks) is reported as “about 20 fold”. The “Oct 3/4 expression increase compared to untreated cells” value (Oct 3/4; [2]) was “at least 10 fold”, the “FGF-21 expression increase compared to untreated cells” value (FGF-21; [2]) was “at least 20 fold” and the “concentration at which curcumin blocked migration by apparent toxicity” value (human MSCs; 36-hour run, FIG. 4) was “greater than 1 μM”. For the same molecule, the “estimated LD50 (apparent toxicity, reduced cell number)” value (human MSCs; 36-hour run, FIG. 4) was 3 µM and the EC50 (human MSCs; 36 h, read-out: apparent EC50, curcumin-induced migration) was 0.25 µM.
For `CSCC[C@H](NC(=O)[C@H](CC(C)C)NC(=O)CNC(=O)[C@H](Cc1ccccc1)NC(=O)[C@H](Cc1ccccc1)NC(=O)[C@H](CCC(N)=O)NC(=O)[C@H](CCC(N)=O)NC(=O)[C@@H]1CCCN1C(=O)[C@H](CCCCN)NC(=O)[C@@H]1CCCN1C(=O)[C@@H](N)CCCNC(=N)N)C(N)=O` [substance P], the EC50 (human fibroblast) is given as 0.0022 µM, the “MSC migration into cell-free zone” value (human MSCs; 3.7 nM substance P, 24 hours, human UC-MSCs, FIG. 1) is given as “induced MSC migration into the cell-free center of the well” and the “migration (percent closure) dose-response” value (human MSCs; CB-MSCs, 0 to 18.5 nM, 24-hour live cell analysis, FIG. 2) is given as “migration increased in a dose-dependent manner”.
For `CCCCC(=O)O` [valeric acid], the Hsp70 expression increase (Hsp70) was “lower levels”, the CXCR4 expression increase (CXCR4) was “lower levels” and the “Oct 3/4 expression increase” value (Oct 3/4; up to 2 weeks) was “less expression activation”. The SIRT-1 expression increase (SIRT-1) was “significantly less effective” and the FGF-21 expression increase (FGF-21) was “lower levels”.
In the case of “FGF-2: recombinant human fibroblast growth factor 2”, the “concentration of maximal proliferative responses” value [1] is reported as “about 10 ng/mL”.
